Tests used:
Galectin-3 = Galectin-3 (Homo sapiens (Human), UniProt P17931); experiment: Fluorescence anisotropy assay, inhibition of galectin / fluorescein tagged saccharide probe interaction; assay type: binding
Description: Experimental Procedures (Evaluation of Kd Values)
The affinity of Example 1-33 for galectins were determined by a fluorescence anisotropy assay where the compound was used as an inhibitor of the interaction between galectin and a fluorescein tagged saccharide probe as described Sörme, P., Kahl-Knutsson, B., Huflejt, M., Nilsson, U. J., and Leffler H. (2004) Fluorescence polarization as an analytical tool to evaluate galectin-ligand interactions. Anal. Biochem. 334: 36-47, (Sörme et al., 2004) and Monovalent interactions of Galectin-1 By Salomonsson, Emma; Larumbe, Amaia; Tejler, Johan; Tullberg, Erik; Rydberg, Hanna; Sundin, Anders; Khabut, Areej; Frejd, Torbjorn; Lobsanov, Yuri D.; Rini, James M.; et al, From Biochemistry (2010), 49(44), 9518-9532, (Salomonsson et al., 2010).

Galectin-1 = Galectin-1 (Homo sapiens (Human), UniProt P09382); experiment: as above; assay type: binding
Galectin-1, sequence (P09382 whole entry): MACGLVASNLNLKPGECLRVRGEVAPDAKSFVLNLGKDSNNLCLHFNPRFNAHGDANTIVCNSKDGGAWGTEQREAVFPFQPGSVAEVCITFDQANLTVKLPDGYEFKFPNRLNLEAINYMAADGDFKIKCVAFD

Galectin-3, sequence (P17931 whole entry): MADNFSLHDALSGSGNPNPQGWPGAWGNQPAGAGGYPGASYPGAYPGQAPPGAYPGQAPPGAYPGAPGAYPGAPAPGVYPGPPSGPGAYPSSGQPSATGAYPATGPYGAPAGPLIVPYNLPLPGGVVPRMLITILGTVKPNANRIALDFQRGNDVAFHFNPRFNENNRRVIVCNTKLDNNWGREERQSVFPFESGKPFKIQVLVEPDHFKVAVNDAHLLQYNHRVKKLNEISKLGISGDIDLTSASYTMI

Row | SMILES | Kd (Galectin-3) | Kd (Galectin-1)
1 | OC[C@H]1O[C@H](Sc2cnc(C(F)(F)F)c(Br)c2)[C@H](O)[C@@H](n2cc(-c3nc(Cl)cs3)nn2)[C@H]1O [Example 1, 5-Bromo-6-trifluoromethyl-pyridine-3-yl 3-[4-(4-chlorothiazol-2-yl)-1H-1,2,3-triazol-1-yl]-3-deoxy-1-thio-α-D-galactopyranoside] | 250 nM | 110 nM
2 | N#Cc1ccc(S[C@H]2O[C@H](CO)[C@H](O)[C@H](n3cc(-c4csc(O)n4)nn3)[C@H]2O)cc1Br [Example 22, 3-Bromo-4-cyanophenyl 3-deoxy-3-[4-(2-hydroxythiazol-4-yl)-1H-1,2,3-triazol-1-yl]-1-thio-α-D-galactopyranoside] | 6000 nM | 63 nM
3 | OC[C@H]1O[C@H](Sc2cnc(C(F)(F)F)c(Br)c2)[C@H](O)[C@@H](n2cc(-c3nc(Cl)c(Cl)s3)nn2)[C@H]1O [Example 29, 5-Bromo-6-trifluoromethyl-pyridine-3-yl 3-deoxy-3-[4-(4,5-dichlorothiazol-2-yl)-1H-1,2,3-triazol-1-yl]-1-thio-α-D-galactopyranoside] | 69 nM | 390 nM
4 | N#Cc1ncc(S[C@H]2O[C@H](CO)[C@H](O)[C@H](n3cc(-c4nc(Cl)cs4)nn3)[C@H]2O)cc1Br [Example 6, 5-Bromo-6-cyano-3-pyridyl 3-[4-(4-chlorothiazol-2-yl)-1H-1,2,3-triazol-1-yl]-3-deoxy-1-thio-α-D-galactopyranoside] | 250 nM | 68 nM
5 | OC[C@H]1O[C@H](Sc2ccc(C(F)(F)F)c(Cl)c2)[C@H](O)[C@@H](n2cc(-c3csc(O)n3)nn2)[C@H]1O [Example 24, 3-Chloro-4-trifluoromethylphenyl 3-deoxy-3-[4-(2-hydroxythiazol-4-yl)-1H-1,2,3-triazol-1-yl]-1-thio-α-D-galactopyranoside] | 6500 nM | 71 nM
6 | OC[C@H]1O[C@H](Sc2cnc(C(F)(F)F)c(Br)c2)[C@H](O)[C@@H](n2cc(-c3csc(O)n3)nn2)[C@H]1O [Example 23, 5-Bromo-6-trifluoromethyl-3-pyridyl 3-deoxy-3-[4-(2-hydroxythiazol-4-yl)-1H-1,2,3-triazol-1-yl]-1-thio-α-D-galactopyranoside] | 3100 nM | 32 nM
7 | N#Cc1ncc(S[C@H]2O[C@H](CO)[C@H](O)[C@H](n3cc(-c4csc(O)n4)nn3)[C@H]2O)cc1Cl [Example 13, 5-Chloro-6-cyano-pyridine-3-yl 3-deoxy-3-[4-(2-hydroxythiazol-4-yl)-1H-1,2,3-triazol-1-yl]-1-thio-α-D-galactopyranoside] | 8000 nM | 38 nM
8 | OC[C@H]1O[C@H](Sc2ccc(Cl)c(Cl)c2)[C@H](O)[C@@H](n2cc(-c3csc(O)n3)nn2)[C@H]1O [Example 12, 3,4-Dichlorophenyl 3-deoxy-3-[4-(2-hydroxythiazol-4-yl)-1H-1,2,3-triazol-1-yl]-1-thio-α-D-galactopyranoside] | 8600 nM | 58 nM
9 | OC[C@H]1O[C@H](Sc2cc(Cl)c(Cl)c(Cl)c2)[C@H](O)[C@@H](n2cc(-c3csc(O)n3)nn2)[C@H]1O [Example 20, 3,4,5-trichlorophenyl 3-deoxy-3-[4-(2-hydroxythiazol-4-yl)-1H-1,2,3-triazol-1-yl]-1-thio-α-D-galactopyranoside] | 6000 nM | 56 nM
10 | N#Cc1ncc(Cl)cc1S[C@H]1O[C@H](CO)[C@H](O)[C@H](n2cc(-c3csc(O)n3)nn2)[C@H]1O [Example 16, 5-Chloro-2-cyano-3-pyridyl 3-deoxy-3-[4-(2-hydroxythiazol-4-yl)-1H-1,2,3-triazol-1-yl]-1-thio-α-D-galactopyranoside] | 2200 nM | 6 nM
11 | N#Cc1ncc(Cl)cc1S[C@H]1O[C@H](CO)[C@H](O)[C@H](n2cc(-c3nc(Cl)cs3)nn2)[C@H]1O [Example 5, 5-Chloro-2-cyano-pyridine-3-yl 3-[4-(4-chlorothiazol-2-yl)-1H-1,2,3-triazol-1-yl]-3-deoxy-1-thio-α-D-galactopyranoside] | 220 nM | 95 nM
